We go through 27 compounds from US9056111B1, “Selective efflux inhibitors and related pharmaceutical compositions and methods of treatment” (STC.UNM, priority 2011, dated 2015).

A word on the IC50: it is the concentration needed to halve the response being measured. A high value points to weaker potency in that assay.

One data set concerns the target ABCB1 (Homo sapiens, UniProt P08183). Put plainly: JC-1 efflux inhibition dose response, flow cytometry, Jurkat-DNR cells. As to conditions: for IC50: IC50 ABCB1 (efflux inhibition of JC-1 substrate), Jurkat-DNR cells over-expressing ABCB1, averages of two to four replicates. The protocol:
(§1) The HyperCyt® high throughput flow cytometry platform (IntelliCyt™, Albuquerque, N. Mex.) was used to sequentially sample cells from 384-well microplates (2 μL/sample) for flow cytometer presentation at a rate of 40 samples per minute.^62-63 Flow cytometric analysis was performed on a CyAn™ flow cytometer (Beckman-Coulter, Fullerton, Calif.). The resulting time-gated data files were analyzed with HyperView® software to determine compound activity in each well. Inhibition response curves were fitted by Prism® software (GraphPad Software, Inc., San Diego, Calif.) using nonlinear least-squares regression in a sigmoidal dose response model with variable slope, also known as the four-parameter logistic equation. This type of time-gated flow cytometric data analysis was described in detail for a previous ABC transporter screen from our group.^56
The assay provider's ABCB1 over-expressing Jurkat-DNR cell line is used for confirmatory follow up instead of the CCRF-Adr cells. Each cell line (Jurkat-DNR and Ig-MXP3) is run separately against all compounds (no differential cell staining) in dose response. The assay is conducted in 384-well format in a total volume of 15.1 μL. Cells and reagents are added sequentially as follows: 1) PBS buffer (5 μL/well); 2) test compound (100 nL/well); 3) drug-resistant cells (10 μL/well) pre-stained with the JC-1 substrate at 1 μM. Final in-well concentrations of test compound range from 50 μM to 69 nM over an 18 point dose response and the cell concentration is 1×10^6 cells/mL. Nicardipine (50 μM) is added to each plate as a pan-inhibition positive control. The plate is rotated end-over-end at 4 RPM and 25° C. for 30 minutes and then cell samples are analyzed and flow cytometric data of light scatter and fluorescence emission at 530+/−20 nm (488 nm excitation, FL1) are collected.
Each cell line (Jurkat-DNR and Ig-MXP3) was run separately against all compounds (no differential cell staining) in dose-response. The protocol differed from the single point screen as describe here. Cells and reagents were added sequentially as follows: 1) PBS buffer (5 μL per well); 2) test compound (100 nL per well); 3) drug-resistant cells (10 μL, per well) pre-exposed to the JC-1 substrate at 1 μM just prior to the well addition. Final in-well concentrations of test compound ranged from 50 μM to 69 nM over an 18 point dose-response and the cell concentration was 1×10^6 cells mL^−1.

Another data set concerns the target T1, ABCB1 / ABCG2 (Homo sapiens, UniProt Q9UNQ0).
T1 sequence (Q9UNQ0 1-655): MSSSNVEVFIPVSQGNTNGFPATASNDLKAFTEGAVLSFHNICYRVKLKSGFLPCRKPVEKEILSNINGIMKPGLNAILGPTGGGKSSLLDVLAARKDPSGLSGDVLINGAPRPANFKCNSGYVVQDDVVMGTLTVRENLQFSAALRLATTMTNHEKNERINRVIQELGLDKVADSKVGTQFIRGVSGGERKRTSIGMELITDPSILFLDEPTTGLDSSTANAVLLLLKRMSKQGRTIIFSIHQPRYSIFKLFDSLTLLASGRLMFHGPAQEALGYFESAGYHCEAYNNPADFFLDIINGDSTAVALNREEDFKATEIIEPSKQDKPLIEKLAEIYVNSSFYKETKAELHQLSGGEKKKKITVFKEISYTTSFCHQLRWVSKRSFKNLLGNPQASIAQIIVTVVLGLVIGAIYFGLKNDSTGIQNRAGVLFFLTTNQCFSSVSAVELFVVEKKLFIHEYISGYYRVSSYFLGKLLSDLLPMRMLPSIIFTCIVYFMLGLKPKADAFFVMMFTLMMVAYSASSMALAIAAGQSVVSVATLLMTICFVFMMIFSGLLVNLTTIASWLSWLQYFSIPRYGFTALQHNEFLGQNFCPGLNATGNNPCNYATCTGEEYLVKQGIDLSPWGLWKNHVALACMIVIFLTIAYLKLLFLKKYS
The data set can be described thus: JC-1 efflux inhibition dose response, flow cytometry, Ig-MXP3 cells. The settings on record: human, probe JC-1 (1 µM), ~Fold G2 Selective (B1/G2), quotient of average ABCB1 IC50 and average ABCG2 IC50, efflux assay. The protocol: as §1
(§2) The assay provider's ABCB1 over-expressing Jurkat-DNR cell line is used for confirmatory follow up instead of the CCRF-Adr cells. Each cell line (Jurkat-DNR and Ig-MXP3) is run separately against all compounds (no differential cell staining) in dose response. The assay is conducted in 384-well format in a total volume of 15.1 μL. Cells and reagents are added sequentially as follows: 1) PBS buffer (5 μL/well); 2) test compound (100 nL/well); 3) drug-resistant cells (10 μL/well) pre-stained with the JC-1 substrate at 1 μM. […] Nicardipine (50 μM) is added to each plate as a pan-inhibition positive control.
(§3) Each cell line (Jurkat-DNR and Ig-MXP3) was run separately against all compounds (no differential cell staining) in dose-response. The protocol differed from the single point screen as describe here. Cells and reagents were added sequentially as follows: 1) PBS buffer (5 μL per well); 2) test compound (100 nL per well); 3) drug-resistant cells (10 μL, per well) pre-exposed to the JC-1 substrate at 1 μM just prior to the well addition.
For orientation: A flow cytometer gives signals particle by particle.

Another data set addresses T2, ABCG2 (Homo sapiens, UniProt Q9UNQ0).
T2 sequence (Q9UNQ0 1-655): T1 sequence (Q9UNQ0 1-655)
Described as above. The protocol:
as §1, §2, §3

A value given as a limit tells only on which side of the number the result lay.

ABCB1, sequence (P08183 whole entry): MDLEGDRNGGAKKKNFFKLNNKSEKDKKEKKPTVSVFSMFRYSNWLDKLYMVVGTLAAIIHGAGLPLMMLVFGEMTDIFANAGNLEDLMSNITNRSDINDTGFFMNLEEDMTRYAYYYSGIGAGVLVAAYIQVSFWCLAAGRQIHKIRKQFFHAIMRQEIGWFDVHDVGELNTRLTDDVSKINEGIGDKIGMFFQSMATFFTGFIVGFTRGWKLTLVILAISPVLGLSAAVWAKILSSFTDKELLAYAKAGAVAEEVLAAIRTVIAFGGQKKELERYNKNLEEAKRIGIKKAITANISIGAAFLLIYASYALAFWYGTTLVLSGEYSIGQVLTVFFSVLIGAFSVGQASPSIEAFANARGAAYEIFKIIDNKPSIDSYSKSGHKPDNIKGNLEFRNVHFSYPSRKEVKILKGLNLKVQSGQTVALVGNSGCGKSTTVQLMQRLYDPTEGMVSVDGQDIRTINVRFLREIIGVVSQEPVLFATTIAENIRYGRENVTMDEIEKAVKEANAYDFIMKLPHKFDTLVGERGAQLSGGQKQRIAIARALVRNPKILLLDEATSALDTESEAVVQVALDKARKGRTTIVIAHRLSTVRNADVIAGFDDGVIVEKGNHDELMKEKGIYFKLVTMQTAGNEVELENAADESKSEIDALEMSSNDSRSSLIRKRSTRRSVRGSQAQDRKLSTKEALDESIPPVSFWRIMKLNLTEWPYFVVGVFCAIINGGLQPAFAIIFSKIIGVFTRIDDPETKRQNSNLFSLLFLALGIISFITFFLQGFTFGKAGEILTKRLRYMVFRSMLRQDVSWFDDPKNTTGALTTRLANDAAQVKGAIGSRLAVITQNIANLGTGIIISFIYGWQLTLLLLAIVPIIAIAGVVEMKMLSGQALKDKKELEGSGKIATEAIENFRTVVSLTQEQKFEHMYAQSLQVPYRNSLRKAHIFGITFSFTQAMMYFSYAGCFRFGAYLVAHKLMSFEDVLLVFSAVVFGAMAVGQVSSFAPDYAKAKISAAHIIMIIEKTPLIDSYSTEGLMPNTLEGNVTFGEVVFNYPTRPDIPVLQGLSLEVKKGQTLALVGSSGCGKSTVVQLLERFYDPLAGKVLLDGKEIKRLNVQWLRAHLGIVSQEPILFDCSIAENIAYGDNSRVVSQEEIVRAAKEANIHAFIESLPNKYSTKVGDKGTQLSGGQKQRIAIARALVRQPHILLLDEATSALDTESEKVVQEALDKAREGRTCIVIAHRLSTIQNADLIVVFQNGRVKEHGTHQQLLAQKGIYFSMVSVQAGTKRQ

In the case of `O=C(c1ccsc1)N1CCN(c2cc(-c3ccccc3)nc3cc(-c4cccc(Cl)c4)nn23)CC1` [Compound 12], the IC50 against ABCB1 amounted to 3.97 ± 0.8 µM; against ABCG2, 1.4 ± 0.32 µM. For the same compound, the selectivity ratio at 30 min at ABCB1 / ABCG2 came out at 2.8.
For `O=C(c1ccoc1)N1CCN(c2cc(-c3cccc(F)c3)nc3cc(-c4ccccc4)nn23)CC1` [Compound 47], in that order: 7.07 µM, 1.68 ± 0.61 µM and 4.2.
For `CC(C)(C)c1cc2nc(-c3ccco3)cc(N3CCN(C(=O)c4ccoc4)CC3)n2n1` [Compound 50], in that order: 3.31 µM, 1.97 µM and 1.7.
For `O=C(c1ccoc1)N1CCN(c2cc(-c3ccco3)nc3cc(-c4cccc(-c5ccco5)c4)nn23)CC1` [Compound 60], in that order: 3.98 ± 1.3 µM, 0.93 ± 0.27 µM and 4.3.
For the compound `O=C(c1ccoc1)N1CCN(c2cc(-c3ccccc3)nc3cc(-c4ccccc4)nn23)CC1` [Compound 62], the IC50 at ABCB1 came to 4.79 ± 4.23 µM; at ABCG2, 1.58 ± 0.63 µM. Besides, the selectivity ratio at 30 min at ABCB1 / ABCG2 came out at 3.
For `COc1ccc(-c2cc(N3CCN(C(=O)c4ccoc4)CC3)n3nc(-c4cccc(Cl)c4)cc3n2)cc1` [Compound 29], in that order: 4.12 ± 1.05 µM, 1.71 ± 0.58 µM and 2.4.
For `O=C(c1ccccc1)N1CCN(c2cc(-c3ccccc3)nc3cc(-c4cccc(F)c4)nn23)CC1` [Compound 42], in that order: 4.34 ± 2.09 µM, 2.27 ± 0.06 µM and 1.9.
For `O=C(c1ccoc1)N1CCN(c2cc(-c3ccco3)nc3cc(-c4ccc(Cl)cc4)nn23)CC1` [Compound 54], in that order: 41.5 µM, 1.89 ± 1.18 µM and 22.
`CN(CCCN(C)c1cc(-c2ccco2)nc2cc(-c3ccccc3)nn12)C(=O)c1ccoc1` [Compound 81]: the IC50 came to 13.1 ± 6.27 µM against ABCB1 and 5.43 ± 4.11 µM against ABCG2. The selectivity ratio at 30 min at ABCB1 / ABCG2 is 2.4.
For `COc1cccc(-c2cc3nc(-c4ccccc4)cc(N4CCN(C(=O)c5ccco5)CC4)n3n2)c1` [Compound 38], in that order: 4.77 ± 0.63 µM, 1.4 ± 0.32 µM and 3.4.
On to `O=C(c1ccoc1)N1CCN(c2cc(-c3ccc(F)cc3)nc3cc(-c4ccccc4)nn23)CC1` [Compound 48], for which the half-maximal inhibitory concentration (IC50) came to 11.8 µM on ABCB1 and 6.45 µM against ABCG2. Further, the selectivity ratio at 30 min at ABCB1 / ABCG2 came to 1.8.
Take `O=C(c1ccoc1)N1CCCN(c2cc(-c3ccco3)nc3cc(-c4ccccc4)nn23)C1` [Compound 85]: the results for the IC50 at ABCB1 and on ABCG2 were 19.1 ± 9.52 µM and 2.25 ± 1.9 µM, respectively. Besides, the selectivity ratio at 30 min at ABCB1 / ABCG2 was determined as 8.5.
For the compound `COc1ccccc1-c1cc2nc(-c3ccco3)cc(N3CCN(C(=O)c4ccoc4)CC3)n2n1` [Compound 55], the results for the IC50 against ABCB1 and at ABCG2 were 5.57 µM and 2.76 ± 2.14 µM, respectively. Besides, the selectivity ratio at 30 min on ABCB1 / ABCG2 came to 2.
For `CN(C)c1cc(-c2ccco2)nc2cc(-c3ccccc3)nn12` [Compound 82], in that order: 27.7 ± 14.5 µM, 7.68 ± 1.69 µM and 3.6.
Turning to `O=C(c1ccoc1)N1CCN(c2cc(-c3ccccc3F)nc3cc(-c4cccc(Cl)c4)nn23)CC1` [Compound 26], the IC50 against ABCB1 amounted to 4.69 ± 1.5 µM; against ABCG2, 1.93 ± 0.48 µM. Besides, the selectivity ratio at 30 min on ABCB1 / ABCG2 came to 2.4.
With `COc1ccccc1C(=O)N1CCN(c2cc(-c3ccccc3)nc3cc(-c4cccc(Cl)c4)nn23)CC1` [Compound 14], the IC50 was found to be 4.73 ± 1.78 µM against ABCB1 and 4.92 ± 4.28 µM against ABCG2. For the same compound, the selectivity ratio at 30 min at ABCB1 / ABCG2 came out at 1.
For `O=C(c1cccc(Cl)c1)N1CCN(c2cc(-c3ccccc3)nc3cc(-c4cccc(Cl)c4)nn23)CC1` [Compound 18], in that order: 4.19 ± 1.88 µM, 2.95 ± 0.57 µM and 1.4.
For `CC1CN(C(=O)c2ccoc2)CCN1c1cc(-c2ccco2)nc2cc(-c3ccccc3)nn12` (centres unmarked) [Compound 86], in that order: 3.27 ± 1.43 µM, 4.65 ± 3.96 µM and 0.7.
For `Cc1cccc(-c2cc3nc(-c4ccco4)cc(N4CCN(C(=O)c5ccoc5)CC4)n3n2)c1` [Compound 58], in that order: 3.45 µM, 0.58 µM and 5.9.
Consider `c1ccc(-c2cc3nc(-c4ccco4)cc(N4CCNCC4)n3n2)cc1` [Compound 77], for which the values for the IC50 at ABCB1 and against ABCG2 were 23.6 ± 12.1 µM and 5.71 ± 1.8 µM, respectively. In addition, the selectivity ratio at 30 min on ABCB1 / ABCG2 stood at 4.1.
For `Cc1ccc(-c2cc(N3CCN(C(=O)c4ccoc4)CC3)n3nc(-c4ccccc4)cc3n2)o1` [Compound 66], in that order: 0.68 µM, 0.84 ± 0.87 µM and 0.8.
For `O=C(c1ccco1)N1CCN(c2cc(-c3ccco3)nc3cc(-c4ccccc4)nn23)CC1` [Compound 67], in that order: 6.57 ± 2.13 µM, 2.77 ± 4.01 µM and 2.4.
For `C#Cc1cc(N2CCN(C(=O)c3ccoc3)CC2)n2nc(-c3cccc(Cl)c3)cc2n1` [Compound 32], in that order: 10.2 ± 3.99 µM, 2.36 ± 0.53 µM and 4.3.
Consider `O=C(c1ccc(Cl)cc1)N1CCN(c2cc(-c3ccccc3)nc3cc(-c4cccc(Cl)c4)nn23)CC1` [Compound 19], for which the figures for the IC50 at ABCB1 and on ABCG2 were 2.36 ± 0.7 µM and 2.67 ± 0.85 µM, respectively. In addition, the selectivity ratio at 30 min at ABCB1 / ABCG2 worked out at 0.9.
For `O=C(C1CCCCC1)N1CCN(c2cc(-c3ccccc3)nc3cc(-c4cccc(Cl)c4)nn23)CC1` [Compound 22], in that order: 3.31 ± 1.86 µM, 2.67 ± 1.26 µM and 1.2.
For `Cc1cccc(-c2cc3nc(-c4ccccc4)cc(N4CCN(C(=O)c5ccco5)CC4)n3n2)c1` [Compound 40], in that order: 3.88 ± 1.67 µM, 2.46 ± 1.09 µM and 1.6.
As to `O=C(OCc1ccccc1)N1CCN(c2cc(-c3ccco3)nc3cc(-c4ccccc4)nn23)CC1` [Compound 76], the half-inhibitory concentration (IC50) on ABCB1 was over 50 µM; at ABCG2 it was 2.71 ± 1.95 µM. Also, at ABCB1 (JC-1 efflux, Jurkat-DNR), the “efflux inhibition activity ABCB1” value is reported as “completely lost”. The selectivity ratio at 30 min on ABCB1 / ABCG2 is about 19. For the same compound, the “~Fold G2 Selective (B1/G2)” value on ABCG2 (quotient of average ABCB1 IC50 and average ABCG2 IC50, efflux assay) was 18.5 fold.
